The numbers were not newly measured in patent publication US20230321005A1, “PHYTONADIONE COMPOSITIONS” (CIPLA LIMITED, priority 2020, published 2023), which cites them from elsewhere.

For series [1] the following is noted: forms multiple peroxide and epoxy impurities.

For `CC1=C(C/C=C(\C)CCC[C@H](C)CCC[C@H](C)CCCC(C)C)C(=O)c2ccccc2C1=O` [Phytonadione, 2 - methyl - 3 - phytyl - 1, 4 - naphthoquinone], the “Solubility in aqueous solvents” value is “insoluble”. Also, the “Susceptibility to oxidative and photolytic degradation” value in series [1] was “highly susceptible”.
